# Laboratory results published in patent publication US20190365719A1, “COMBINATION TREATMENTS OF HSP90 INHIBITORS FOR ENHANCING TUMOR IMMUNOGENICITY AND METHODS OF USE THEREOF” (Massachusetts Institute of Technology, priority 2018, published 2019).
# Read-outs that look alike come from different tables or passages of the source.
# B1: IFN-γ: cytokine, canonical stimulus of antigen presentation, comparator at 10 ng/mL (protein, UniProt P01580 23-155, looked up)
# Interferon gamma: HGTVIESLESLNNYFNSSGIDVEEKSLFLDIWRNWQKDGDMKILQSQIISFYLRLFEVLKDNQAISNNISVIESHLITTFFSNSKAKKDAFMSIAKFEVNNPQVQRQAFNELIRVVHQLLPESSLRKRKRSRC
# Assays:
# [1] = test system: MC38 cells; test: Flow cytometry of MHC Class I H2-Kb surface expression on MC38 cells; assay type: cell-based, mouse
# Method: (§1) For analysis of MHC Class I surface expression, cells were seeded into 12 well plates (125,000/well). 24-hours later, cells were treated with the indicated concentrations of HSP90i (NVP-HSP990) or DMSO vehicle. 72-hours after treatment, cells were dissociated with Accumax (Innovative Cell Technologies) and each treatment condition was distributed into 2 wells of a 96 well plate. […] After incubation with antibody, cells were washed 1× in ice cold PBS+10% FBS prior to analysis on a MACSQuant VYB flow cytometer. Cytometric data were plotted and analyzed with FloJo.
# as §1, with “LSR-2” for “MACSQuant VYB”
# [2] = cited from earlier work
# [3] = cited from earlier work; remark: listed apart in the source
# [4] = relative to 17-AAG; cited from earlier work
# [5] = test system: TCL1-SCID transplant; conditions: 10 mg/kg for 16 days; cited from earlier work
# [6] = test system: human HSP90; conditions: cited from earlier work
# [7] = test system: tumor growth; conditions: 25 mg/kg three times a week; cited from earlier work
# [8] = test system: TMK-1 xenografts; conditions: 5 mg/kg or 25 mg/kg thrice per week; cited from earlier work
# [9] = target: HSP90; conditions: binding to HSP90, same site; cited from earlier work
# [10] = mono-therapy, cited from earlier work
# [11] = test system: A375 cells; conditions: cited from earlier work
# [12] = target: HSP90; conditions: cited from earlier work
# [13] = test system: HSP90; conditions: cited from earlier work; remark: listed apart in the source
# [14] = test system: A375 and A2780 xenografts; conditions: 60 mg/kg i.v.; cited from earlier work
# [15] = 10 mg/kg i.v., test animals; cited from earlier work
# [16] = test system: HSP90; conditions: cited from earlier work; remark: listed apart in the source
# [17] = test system: refractory neuroendocrine tumors (NET)s; conditions: 42-100 mg/m2 every other day; cited from earlier work
# [18] = test system: M229R and 1205LuR xenografts; conditions: cited from earlier work
# [19] = test system: MC38 cells; test: Immunoblot analysis of MC38 cells; assay type: cell-based, mouse; conditions: Hsp90i 60 nM or IFN-γ 10 ng/mL
# Method: Protein extraction was performed by washing cells 2× with PBS. A volume of lysis buffer (50 mM Tris pH 7.5, 150 mM NaCl, 1 mM EDTA, 1% Triton-X100, 0.1% SDS, 1× Halt Protease/Phosphatase inhibitor) equal to 1/10 the culture media volume was added directly to the culture dish and incubated for 2-3 min on ice. Lysates were then thoroughly scraped and pipetted into 1.5 mL tubes and incubated for an additional 30 min on ice. Lysates were then cleared by centrifugation at 14,000×g for 15 min and quantified using BCA Assay. Lysates were separated by SDS-PAGE and transferred to 0.2 μm nitrocellulose membranes prior to washing with PBST, blocking with 5% milk in PBST, and incubation with primary antibody overnight at 4° C. All primary antibodies were diluted 1:1000 in 2.5% milk in PBST. Membranes were then washed 4×5 min with PBST and incubated with HRP conjugated secondary antibody at a 1:10,000 dilution in 2.5% milk in PBST, and washed again 4×5 min with PBST. Detection of secondary antibody was performed with SuperSignal West Pico or Femto ECL reagents (Pierce) and digitally imaged on a ChemiDoc (BioRad).
# Immunoblotting was performed as described in Example 4. Briefly, protein extraction was performed by washing cells with PBS and then isolating whole cell lysates in lysis buffer (50 mM Tris pH 7.5, 150 mM NaCl, 1 mM EDTA, 1% Triton-X100, 0.1% SDS, 1× Halt Protease/Phosphatase inhibitor) Lysates were then cleared by centrifugation and quantified using BCA Assay. Lysates were separated by SDS-PAGE and transferred to 0.2 μm nitrocellulose membranes prior to washing with PBST, blocking with 5% milk in PBST, and incubation with primary antibody overnight at 4° C. All primary antibodies were diluted 1:1000 in 2.5% milk in PBST. Membranes were then washed and incubated with HRP conjugated secondary antibody. Detection of secondary antibody was performed with SuperSignal West Pico or Femto ECL reagents (Pierce) and digitally imaged on a ChemiDoc (BioRad).
molecule,measurement,setting,value
COc1ccc(C[C@H](NC(=O)[C@H](C)NC(=O)CN2CCOCC2)C(=O)N[C@@H](Cc2ccccc2)C(=O)C2(C)CO2)cc1 (stereo in doubt) [ONX-0914],effect on HSP90i-caused increase in MHC Class I surface expression,[1]; ONX-0914 500 nM with low level HSP90i,abrogated the increase in MHC Class I surface expression
"C=CCNC1=C2C[C@@H](C)C[C@H](OC)[C@H](O)[C@@H](C)/C=C(\C)[C@H](OC(N)=O)[C@@H](OC)/C=C\C=C(/C)C(=O)NC(=CC1=O)C2=O [17-AAG, 17-Allylamino-17-demethoxy-geldanamycin]",maximum tolerated dose (MTD),"[2]; IV over 60 minutes on days 1, 4, 8 and 11 of each 21 day cycle",150 mg/m^2
same,water solubility (in words),[3],not water-soluble
"CO[C@H]1/C=C\C=C(/C)C(=O)NC2=CC(=O)C(NCCN(C)C)=C(C[C@@H](C)C[C@H](OC)[C@H](O)[C@@H](C)/C=C(\C)[C@@H]1OC(N)=O)C2=O.Cl [17-DMAG, 17-dimethylaminoethylamino-17-demethoxy-geldanamycin]","plasma half-life, oral bioavailability, metabolism",[4],"longer plasma half-life, greater oral bioavailability, and less extensive metabolism"
same,survival,[5],prolongs the survival
same,white blood cell count,[5],significantly decreases the white blood cell count
same,IC50,[6]; cell-free assay,62 nM
same,potency against human HSP90 as compared with 17-AAG,[6],~2 times
same,tumor growth in mice,[7],significantly suppresses tumor growth
same,tumor growth of TMK-1 xenografts,[8],significantly reduces tumor growth
CC(C)c1cc(C(=O)N2Cc3ccc(CN4CCN(C)CC4)cc3C2)c(O)cc1O [AT13387],RP2D,"[2]; six doses in a four-week schedule (day 1, 2, 8, 9, 15, 16)",160 mg/m2
same,R2PD,"[2]; twice weekly for 3 weeks in a 4-week regimen, diarrhea, nausea, vomiting, fatigue, systemic infusion reactions",260 mg/m2
same,MTD,"[2]; twice weekly for 3 weeks in a 4-week regimen, visual disturbances",120 mg/m2
same,Kd,[9],0.7 nM
same,tolerated dose,[10]; once weekly,≤ 90 mg/kg
same,tolerated dose,[10]; twice weekly,up to 70 mg/kg
same,IC50,[11],18 nM
CCNC(=O)c1noc(-c2cc(C(C)C)c(O)cc2O)c1-c1ccc(CN2CCOCC2)cc1 [AUY922],maximum tolerated dose,[2]; once weekly intravenous infusion,70 mg/m^2
COc1c(C)cnc(Cn2cnc3c(Cl)nc(N)nc32)c1C [BIIB021],Ki,[12],[…]
same,MTD,[2]; twice-weekly oral dosing schedule,800 mg
C=CCNc1c(O)cc2c(O)c1C[C@@H](C)C[C@H](OC)[C@H](O)[C@@H](C)/C=C(\C)[C@@H](OC(N)=O)[C@H](OC)/C=C\C=C(/C)C(=O)N2.Cl [IPI-504],maximum tolerated dose (MTD) and recommended phase II dose (RP2D),"[2]; iv, in combination with docetaxel 75 mg/m^2 once every three weeks, phase Ib",450 mg/m^2
same,MTD from phase 1 trial,"[2]; monotherapy, intravenous infusion over 30 minutes",225 mg/m^2
same,"on-treatment deaths, considered drug-related","[2]; phase III trial, metastatic and/or unresectable GIST",four
same,aqueous solubility,[3],> 200 mg/mL
CN1CCC(NC(=O)c2cc(-c3c(O)cc(O)cc3Oc3ccc([N+](=O)[O-])cc3)on2)CC1 [NMS-E973],antitumor efficacy,[14],high antitumor efficacy
same,blood-brain barrier penetration,[15],ability to cross the blood-brain barrier
same,pharmacokinetic profile,[15],favorable pharmacokinetic profile
CC(C)NCCCn1c(Sc2cc3c(cc2I)OCO3)nc2c(N)ncnc21 [PU-H71],IC50,[16],[…]
same,MTD,[2]; intravenous (iv) infusion,350-400 mg/m2
CC1(C)CC(=O)c2c(C(F)(F)F)nn(-c3ccc(C(N)=O)c(N[C@H]4CC[C@H](O)CC4)c3)c2C1 [SNX-2112],MHC-I surface expression on MC38 cells,[1]; 60 nM for each drug,induced MHC-I
CC1(C)CC(=O)c2c(C(F)(F)F)nn(-c3ccc(C(N)=O)c(N[C@H]4CC[C@H](OC(=O)CN)CC4)c3)c2C1 [SNX-5422],patients achieving stable disease for >8 cycles,[17],2 of 3
same,MTD,"[2]; oral, pancreatic NETs and nonfunctional gastrointestinal and pulmonary NETs",75 mg/m^2
CC[C@@H](C)Nc1cc(C(=O)NC2CC3CCC(C2)N3c2ccc(C(=O)C3CC3)cn2)c(C)cc1C(N)=O (stereo partly drawn) [XL888],growth inhibition of established xenografts,"[18]; 100 mg/kg, SCID mice",50%
same,increase in intratumoral HSP70 expression compared with controls,[18]; 15 days of treatment,8.6 fold
B1,"expression of downstream markers of IFN-γ signaling (Stat1, Stat3, pStat3, PD-L1)",[19],induced expression of downstream markers of IFN-γ signaling
